Consider 1 compound from US9399031B2, “Combined use of amides of mono- and dicarboxylic acids and silymarin in the treatment of renal diseases” (Epitech Group S.r.l., priority 2013, dated 2016).

Experiment [1] concerns dismetabolic neuropathies. To be noted: animal model of diabetes by streptozotocin; cited from earlier work.
The subject of experiment [2] is renal ischemia/reperfusion. As to the kind of experiment: Experimental renal ischemia/reperfusion model. In kind it is in vivo. To be noted: mice, bilateral renal ischemia 30 minutes, 6 hours post-reperfusion; compared to the carrier alone; FIGS. 1 and 2. The procedure: After being anesthesized with sodium pentobarbital (50 mg/kg i.p.), mice were placed on a heated mat to keep their body temperature at 37° C. during surgery. After a laparatomy, mice were subjected to bilateral renal ischemia during 30 minutes, during which renal arteries and veins were occluded by microaneurysm clamps. The ischemia time selected was based on the time capable of maximizing the reproducibility of the renal function unbalance, while minimizing animal death. After removing renal clamps, kidneys were observed during additional 5 minutes to confirm complete reperfusion, and subsequently 1 ml saline was injected into the abdomen and incision was sutured. […] All plasma samples were analyzed for assessing the biochemical parameters within 24 hours post-withdrawal. Plasma concentrations of urea and creatinine were measured as indicators of the impaired glomerular function. […] Absorbance change rate was spectrometrically measured at 650 nm. […] Determination of Malondialdehyde Levels Malondialdehyde (MDA) levels in kidneys were determined as an indicator of lipid peroxidation. […] Supernatant absorbance was spectrometrically measured at 532 nm. MDA levels were expressed as μM/100 mg wet tissue. […] Total scoring for each kidney was calculated by the sum of all the 100 scores, with a maximum score of 300. […]

For `CCCCCCCCCCCCCCCC(=O)NCCO` [PEA, Palmitoylethanolamide], in experiment [1], the allodynia entry was “suppresses allodynia”, the blood insulin levels entry is given as “increase in blood insulin levels” and the body weight result is recorded as “partial body weight recovery”. Further, in experiment [2], the “functional and tissue parameters for kidneys (plasma AST, γGT, creatinine, urea; MDA levels, MPO renal activity, histologic assessment)” value is on record as “neither Silymarin alone nor PEA alone, when used at the same doses as in the combination, showed an improvement effect”.
